≈ marks a conversion by molar mass, not a printed value.
System: Mycobacterium tuberculosis
Assay: Antimycobacterial activity against human resistant Mycobacterium tuberculosis measured after six weeks
Type: functional

SMILES	MIC [µg/mL]
O=C(N/N=C1\C(=O)N(Cc2ccccc2)c2ccccc21)c1ccncc1	2.7 to 3.5 (≈ 7.58 to 9.82 µM)
C=CCN1C(=O)/C(=N\NC(=O)c2ccncc2)c2ccccc21	2.7 to 3.5 (≈ 8.81 to 11.4 µM)

Source: ChEMBL document CHEMBL4052616, “Isoniazid derivatives and their anti-tubercular activity” (Eur J Med Chem, 2017)
